In this assay the test system is CD2F1 mice, L1210 leukemia ip, survival T/C. Nature of the assay: NCI In Vivo Anticancer Drug Screen. Data for tumor model L1210 Leukemia (intraperitoneal) in CD2F1 (CDF1) mice. The following applies: higher = longer survival. The procedure, abridged:
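Compound-dosed mice with transplantable tumor versus matched vehicle controls; endpoint ratio T/C reported.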

Where [1] appears, read: endpoint: mean survival time, dose: 50.0 mg/kg/injection, schedule: Q01DX009 (ip), vehicle: saline with Tween-80.
The mark [2] stands for this setting: endpoint: mean survival time, dose: 100.0 mg/kg/injection, schedule: Q01DX009 (ip), vehicle: saline with Tween-80.
Where [3] appears, read: endpoint: mean survival time, dose: 200.0 mg/kg/injection, schedule: Q01DX009 (ip), vehicle: saline with Tween-80.
[4] abbreviates: endpoint: mean survival time, dose: 100.0 mg/kg/injection, schedule: Q04DX003 (ip), vehicle: saline with Tween-80.
Setting [5] is: endpoint: mean survival time, dose: 200.0 mg/kg/injection, schedule: Q04DX003 (ip), vehicle: saline with Tween-80.
[6] abbreviates: endpoint: mean survival time, dose: 400.0 mg/kg/injection, schedule: Q04DX003 (ip), vehicle: saline with Tween-80.
Setting [7] is: endpoint: mean survival time, dose: 100.0 mg/kg/injection, schedule: Q01DX001 (ip), vehicle: saline.
[8] abbreviates: endpoint: mean survival time, dose: 200.0 mg/kg/injection, schedule: Q01DX001 (ip), vehicle: saline.
[9] abbreviates: endpoint: mean survival time, dose: 400.0 mg/kg/injection, schedule: Q01DX001 (ip), vehicle: saline.
[10] abbreviates: endpoint: mean survival time, dose: 400.0 mg/kg/injection, schedule: Q01DX009 (ip), vehicle: saline with Tween-80.

Values joined by “and” are separate entries in the source; they are usually repeats but may differ in a detail not shown here. Equal values may be shown once. Toxic doses and inconclusive results are not listed.

With `[CH3][Sb]([CH3])([CH3])([Cl])[Cl]`, the T/C runs as follows: (endpoint: mean survival time, dose: 50.0 mg/kg/injection, schedule: Q04DX003 (ip), vehicle: saline) 105 % of control; (endpoint: mean survival time, dose: 100.0 mg/kg/injection, schedule: Q04DX003 (ip), vehicle: saline) 101 % of control; (endpoint: mean survival time, dose: 200.0 mg/kg/injection, schedule: Q04DX003 (ip), vehicle: saline) 101 % of control.
`Nc1nc(N)nc(C(=O)CCC(=O)O)n1`: the T/C reads like this: under setting [1], 95 % of control; under setting [2], 95 % of control; under setting [3], 95 % of control.
For the compound `C1C[N-]CC[N-]CC[N-]CC[N-]1.[Cl][Rh][Cl]`, the T/C by setting is: (endpoint: mean survival time, dose: 1.56 mg/kg/injection, schedule: Q01DX009 (ip), vehicle: saline) 100 % of control; (endpoint: mean survival time, dose: 3.13 mg/kg/injection, schedule: Q01DX009 (ip), vehicle: saline) 102 % of control; (endpoint: mean survival time, dose: 6.25 mg/kg/injection, schedule: Q01DX009 (ip), vehicle: saline) 100 % of control; (endpoint: mean survival time, dose: 12.5 mg/kg/injection, schedule: Q01DX009 (ip), vehicle: saline) 98 % of control and 108 % of control.
On to `CN1CCCN(C)C1c1ccc(Cl)cc1`, for which the T/C was 98 % of control (endpoint: mean survival time, dose: 6.25 mg/kg/injection, schedule: Q01DX009 (ip), vehicle: saline with Tween-80); 100 % of control (endpoint: mean survival time, dose: 12.5 mg/kg/injection, schedule: Q01DX009 (ip), vehicle: saline with Tween-80); 94 % of control (endpoint: mean survival time, dose: 25.0 mg/kg/injection, schedule: Q01DX009 (ip), vehicle: saline with Tween-80).
As to `COc1ccc(C(C#N)=C2C=CC(=NO)C=C2)cc1`, the T/C under setting [4] is 98 % of control, the T/C under setting [5] is 95 % of control and the T/C under setting [6] is 101 % of control.
Take `C[N+](C)(Cc1ccccc1)c1ccccc1`: the T/C runs as follows: (endpoint: mean survival time, dose: 10.0 mg/kg/injection, schedule: Q01DX009 (ip), vehicle: saline) 109 % of control; (endpoint: mean survival time, dose: 20.0 mg/kg/injection, schedule: Q01DX009 (ip), vehicle: saline) 94 % of control.
Consider `ICC1CCC(CI)CC1` (stereo not given), for which the T/C was 98 % of control under setting [7], 96 % of control under setting [8] and 93 % of control under setting [9].
In the case of `C=CC1CN2CCC1CC2C(O)c1ccnc2ccc(OC)cc12` (stereo not given) (tested in a mixture with another compound), the T/C under setting [1] was 92 % of control and 95 % of control; the T/C under setting [7] is 95 % of control and 89 % of control; the T/C under setting [2] was 103 % of control and 98 % of control; the T/C under setting [4] was 99 % of control and 93 % of control; the T/C under setting [8] is 96 % of control; the T/C under setting [3] is 88 % of control and 95 % of control. Further, the T/C reads like this: under setting [5], 92 % of control and 90 % of control; under setting [9], 89 % of control.
Turning to `COC1C(N)C(OC2C(Oc3cccc4c(O)c5c(=O)oc6ccc(C)c7c(=O)oc(c34)c5c67)OC(C)C(O)C2(C)O)OC(C)C1O` (stereo not given), the T/C by setting is: (endpoint: median survival time, dose: 1.25 mg/kg/injection, schedule: Q01DX005 (ip), vehicle: other) 151 % of control; (endpoint: median survival time, dose: 3.0 mg/kg/injection, schedule: Q01DX005 (ip), vehicle: other) 177 % of control; (endpoint: median survival time, dose: 5.0 mg/kg/injection, schedule: Q01DX005 (ip), vehicle: other) 164 % of control and 177 % of control.
With `Nc1ccc2ncccc2c1`, the T/C by setting is: (endpoint: mean survival time, dose: 25.0 mg/kg/injection, schedule: Q01DX009 (ip), vehicle: other) 93 % of control; (endpoint: mean survival time, dose: 50.0 mg/kg/injection, schedule: Q01DX009 (ip), vehicle: other) 95 % of control; (endpoint: mean survival time, dose: 100.0 mg/kg/injection, schedule: Q01DX009 (ip), vehicle: other) 91 % of control.
Take `CCCCC/C(C)=C(/C#N)C(=O)OCC`: the T/C by setting is: (endpoint: mean survival time, dose: 75.0 mg/kg/injection, schedule: Q01DX001 (ip), vehicle: saline) 97 % of control; (endpoint: mean survival time, dose: 150.0 mg/kg/injection, schedule: Q01DX001 (ip), vehicle: saline) 96 % of control; (endpoint: mean survival time, dose: 300.0 mg/kg/injection, schedule: Q01DX001 (ip), vehicle: saline) 97 % of control.
On to `CCCCCCCC=C(CCCCCCCC)CCCCCCCC`, for which the T/C was 100 % of control (endpoint: mean survival time, dose: 100.0 mg/kg/injection, schedule: Q01DX001 (ip), vehicle: saline with Tween-80); 97 % of control (endpoint: mean survival time, dose: 200.0 mg/kg/injection, schedule: Q01DX001 (ip), vehicle: saline with Tween-80); 100 % of control (endpoint: mean survival time, dose: 400.0 mg/kg/injection, schedule: Q01DX001 (ip), vehicle: saline with Tween-80).
`N#Cc1nc(N)nc2c1ncn2C1OC(CO)C(O)C1O` (stereo not given): the T/C is 100 % of control (endpoint: median survival time, dose: 8.75 mg/kg/injection, schedule: Q01DX005 (ip), vehicle: distilled water + Tween-80); 107 % of control (endpoint: median survival time, dose: 17.5 mg/kg/injection, schedule: Q01DX005 (ip), vehicle: distilled water + Tween-80); 100 % of control (endpoint: median survival time, dose: 35.0 mg/kg/injection, schedule: Q01DX005 (ip), vehicle: distilled water + Tween-80); 100 % of control (endpoint: median survival time, dose: 70.0 mg/kg/injection, schedule: Q01DX005 (ip), vehicle: distilled water + Tween-80); 101 % of control (endpoint: median survival time, dose: 140.0 mg/kg/injection, schedule: Q01DX005 (ip), vehicle: distilled water + Tween-80).
As to `O=c1cc(C(Cl)C2OC(CO)C(O)C2O)nc[nH]1` (stereo not given), the T/C is 100 % of control (endpoint: median survival time, dose: 18.13 mg/kg/injection, schedule: Q01DX005 (ip), vehicle: saline); 98 % of control (endpoint: median survival time, dose: 36.25 mg/kg/injection, schedule: Q01DX005 (ip), vehicle: saline); 101 % of control (endpoint: median survival time, dose: 72.5 mg/kg/injection, schedule: Q01DX005 (ip), vehicle: saline); 103 % of control (endpoint: median survival time, dose: 145.0 mg/kg/injection, schedule: Q01DX005 (ip), vehicle: saline).
Regarding `c1ccc(C2=Nc3ccccc3C(c3ccccc3)=Nc3ccccc32)cc1`, the T/C under setting [4] is 109 % of control, the T/C under setting [5] was 91 % of control and the T/C under setting [6] was 101 % of control.
In the case of `O=C1C2=C(Nc3cc([N+](=O)[O-])ccc3N2)OC1c1ccccn1` (stereo not given), the T/C by setting is: (endpoint: median survival time, dose: 25.0 mg/kg/injection, schedule: Q01DX005 (ip), vehicle: Klucel (hydroxypropylcellulose) (HPC)) 102 % of control; (endpoint: median survival time, dose: 50.0 mg/kg/injection, schedule: Q01DX005 (ip), vehicle: Klucel (hydroxypropylcellulose) (HPC)) 108 % of control; (endpoint: median survival time, dose: 100.0 mg/kg/injection, schedule: Q01DX005 (ip), vehicle: Klucel (hydroxypropylcellulose) (HPC)) 108 % of control.
Take `Cc1cc(-n2cccc2)no1`: the T/C was 98 % of control under setting [2], 107 % of control under setting [3] and 94 % of control under setting [10].
With `C/C(=C\c1ccccc1)C(=O)c1ccccc1`, the T/C runs as follows: (endpoint: mean survival time, dose: 100.0 mg/kg/injection, schedule: Q04DX003 (ip), vehicle: Klucel (hydroxypropylcellulose) (HPC)) 106 % of control; (endpoint: mean survival time, dose: 200.0 mg/kg/injection, schedule: Q04DX003 (ip), vehicle: Klucel (hydroxypropylcellulose) (HPC)) 101 % of control; (endpoint: mean survival time, dose: 400.0 mg/kg/injection, schedule: Q04DX003 (ip), vehicle: Klucel (hydroxypropylcellulose) (HPC)) 98 % of control.
As to `N#CC(CN1CCOCC1)[N+](=O)[O-]` (stereo not given), the T/C is 95 % of control under setting [2], 100 % of control under setting [3] and 118 % of control under setting [10].
Regarding `CCOC(=O)c1cc([N+](=O)[O-])c(Sc2ncnc3nc[nH]c23)c([N+](=O)[O-])c1`, the T/C by setting is: (endpoint: mean survival time, dose: 0.63 mg/kg/injection, schedule: Q01DX005 (ip), vehicle: other) 104 % of control; (endpoint: mean survival time, dose: 1.25 mg/kg/injection, schedule: Q01DX005 (ip), vehicle: other) 109 % of control; (endpoint: mean survival time, dose: 2.5 mg/kg/injection, schedule: Q01DX005 (ip), vehicle: other) 101 % of control; (endpoint: mean survival time, dose: 5.0 mg/kg/injection, schedule: Q01DX005 (ip), vehicle: other) 114 % of control; (endpoint: mean survival time, dose: 10.0 mg/kg/injection, schedule: Q01DX005 (ip), vehicle: other) 114 % of control; (endpoint: mean survival time, dose: 20.0 mg/kg/injection, schedule: Q01DX005 (ip), vehicle: other) 113 % of control. Besides, the T/C reads like this: (endpoint: mean survival time, dose: 40.0 mg/kg/injection, schedule: Q01DX005 (ip), vehicle: other) 120 % of control; (endpoint: mean survival time, dose: 80.0 mg/kg/injection, schedule: Q01DX005 (ip), vehicle: other) 117 % of control.
For the compound `O=c1ccn(C2CC(O)C(CO)O2)cc1` (stereo not given), the T/C (endpoint: mean survival time, dose: 100.0 mg/kg/injection, schedule: Q01DX005 (ip), vehicle: saline) was 101 % of control and the T/C (endpoint: mean survival time, dose: 200.0 mg/kg/injection, schedule: Q01DX005 (ip), vehicle: saline) was 100 % of control.

The values above are taken from PubChem BioAssay AID256 (DTP/NCI, 2004).
